In one data set the test system is HIV-1 strain YU2. The data set is described as follows: HIV-1 p24 production in infected monocyte derived macrophages (ELISA). Format: cell-based. The note with it: Human immunodeficiency virus 1, Primary macrophage; primary macrophages infected with Yu-2, at 0.1 μM; read-out: inhibition levels of virus replication (p24). The source says: FIG. 1. Potency of quinoline derivatives to inhibit HIV-1 production in PBMC- and macrophages-infected cells. […] Each point represents 6 donors. B) HIV-1 strain YU2 was used to infect triplicate of monocyte derived-macrophages from different donors in the absence or presence of increasing concentrations of Compound 22. […] Each point represents 8 donors. To generate monocyte derived macrophages (MDMs), monocytes were isolated using CD14 microbeads (catalog no. 130-050-201; Miltenyi) and cultured in X-VIVO10 medium (Lonza) supplemented with GM-CSF 1000 U/ml and M-CSF 100 ng/ml for 6 days. Monocytes were seeded at a cell count of 50,000 cells per well in a 96 well plate. After 6 days medium was replaced with X-VIVO10 w/o Cytokines. After 2 days Macrophages were treated with Compound 22 and/or its N-glucuronide metabolite o/n and next day infected with Yu-2 virus for 6 hrs, washed with PBS and cultured in medium containing the compounds for 12 days. Supernatant for p24 Elisa was collected 2 times a week. Cells were treated with 0.01 μM up to 30 μM and p24 antigen levels were monitored in culture supernatant over a 12 day period. Cell culture supernatant HIV p24 titration was performed by ELISA with Ingen Innotest kit (Ingen Ref 80564) according to the manufacturer's instructions.
A general note: ELISA stands for enzyme-linked immunosorbent assay.

A further data set concerns HIV-1 genome (YU2). The data set is described as follows: Deep sequencing of virus from treated infected primary macrophages and after amplification in PBMCs. Format: cell-based. The note with it: deep sequencing across HIV-1 genome, treated vs untreated samples. An excerpt: To test for emergence and/or selection of mutations associated with Compound 22 treatment, we applied a deep sequencing approach for sensitive detection of low-frequency viral variants across the entire HIV-1 genome. Viruses derived from treated and untreated infected primary macrophages of 4 different donors were sequenced and reads not aligning to human genome were aligned to YU2 sequence using gsnap, as detailed in Wu et al. (Fast and SNP-tolerant detection of complex variants and splicing in short reads. Bioinformatics 26, 873-881 (2010)).
To ascertain that amplification of viruses from treated samples will not mutate when amplified in PBMCs, they were sequenced following amplification with or without drug pressure.

For another data set, the system named is JRCSF HIV-1 strain. The data set is described as follows: Reconstituted SCID mice infected with JRCSF HIV-1 strain. Format: in vivo, mouse. The procedure: FIG. 3. Efficacy of Compound 22 to inhibit viral replication in humanized mice. A) Reconstituted SCID mice were infected with JRCSF HIV-1 strain by intraperitoneal injection. Control group received by gavage labrafil and 5% DMSO (n=15) and treated group 20 mg/kg b.i.d of Compound 22 in labrafil and 5% DMSO (n=14) for 15 days. Two independent experiments were performed with 5 and 10 reconstituted mice for each group. Viral load was assessed by measuring viral RNA using the Amplicor HIV-1 Monitor from Roche. B) FACS analysis was performed on peritoneal wash at day 15 post-treatment to assess the CD8/CD4 ratio. C) Engrafted NSG humanized mice were treated by oral gavage with Compound 22 at either 20 mg or 40 mg/kg once a day for 30 days and indicated lymphocyte populations (CD45+; CD4+ and CD8+) were monitored by FACS analysis. D) NSG humanized mice were infected with the YU2 HIV-1 virus and treated either by oral gavage with Compound 22 at 40 mg/kg once a day for 30 days or by HAART (3TC-Tenofovir-Raltegravir and AZT). […] Viral load was assessed by measuring viral RNA using the Amplicor HIV-1 Monitor from Roche. […]
Briefly, TCID50 (tissue culture infectious dose 50%) was determined by infecting human CD8+ T-cell-depleted peripheral blood mononuclear cells (PBMCs) from three donors which were stimulated by addition of IL-2, PHA and anti-CD3 beads (Dynal 11131D, Life Technologies). […] HIV RNA plasma levels were measured by RT-PCR (Amplicor HIV-1 test or AmpliPrep/COBAS TaqMan HIV-1 Test, Roche) at various times after infection.
Cell suspensions were labeled with anti-human monoclonal antibodies (mAb) targeting the following cell-surface markers: CD45-FITC, CD3-PE, CD4-Pe Cy7, CD8-BV421 and CD19-APC (all from Biolegend). Washing and reagent dilutions were done with FACS buffer (PBS containing 2% fetal calf serum and 0.05% sodium azide (NaN3). All acquisitions were performed on a Cyan ADP (Beckman Coulter) flow cytometer. Data were analyzed with FlowJo software (Ashland, Oreg.). Cellular debris and dead cells were excluded by their light-scattering characteristics.

The subject of data set [1] is lymphocyte populations (CD45+; CD4+ and CD8+). Kind of data set: Lymphocyte populations in engrafted humanized mice treated for 30 days. Format: in vivo. Conditions: 20 mg/kg or 40 mg/kg for one month, compared to controls without treatment.
Description: NOD.scid.IL2R−/− (NSG) mice were bred and maintained in individual ventilated cages and were fed autoclaved food and water.
Briefly, newborn (<5 days old) NSG mice received sub-lethal (1Gy) total body irradiation with a Cs source, and then received 2×105 transduced or untransduced CD34+ human HSCs using a 50 μl Hamilton syringe via the intrahepatic (i.h.) route. All manipulations of NSG-HIS mice were performed under laminar flow. […] Mice were monitored three times a week for symptoms or signs of adverse events, according to a standard score sheet.
For data set [2], the system named is alternative splicing events of endogenous genes. The data set is described as follows: RT-PCR analysis of global alternative splicing events in PBMC samples. Format: cell-based, human. The source says:
Quantification of non-viral RNA splicing is achieved using the protocols detailed in […] et al. (Multiple alternative splicing markers for ovarian cancer. Cancer Res. 68, 657-663 (2008)) and Venables et al. (Cancer-associated regulation of alternative splicing. Nat. Struct. Mol. Biol. 16, 670-676 (2009)). […] These 382 alternative splicing events (ASEs) represent a high throughput random snapshot of global alterations of alternative splicing. We performed high throughput PCR analysis of these (essentially random) 382 ASEs on multiple PBMC samples, either from untreated (cells) or treated with DMSO, Compound 22 or with the control antiviral drug (Darunavir). Analysis of the data allowed further stringent quality controls; ASEs were only considered if >75% of the products ran at the expected mobilities (i.e. if the reactions were pure) and if total expected PCR concentration was higher than 20 nM (i.e. if the reactions were strong) which led to 264 remaining ASEs.

For data set [3], the system named is resistant mutants of NL4.3 strain (K103N, K65R and M184V). Conditions: human PBMCs, NL4.3 mutants K103N.
Setting [4] is: 20 mg/kg twice a day, FACS at day 15.

Molecules are shown by their SMILES. “Also recorded” adds a separate entry of the source. Some results are limits rather than exact numbers.

In the case of `FC(F)(F)Oc1ccc(Nc2ccc3cccc(Cl)c3n2)cc1` [Compound 22, 8-chloro-N-(4-(trifluoromethoxy)phenyl)quinolin-2-amine], the inhibition (commonly the share of the control response that was lost under treatment) at 0.1 µM in the data set with HIV-1 strain YU2 was not above 90%. The “selection of specific viral mutations” value in the data set with HIV-1 genome (YU2) is recorded as “does not select for specific mutations; also recorded: unlikely to select for specific viral mutations”. In addition, the “selection of specific viral mutations” value in the data set on HIV-1 genome (YU2) (listed as compound 22) is on record as “do not select for HIV specific mutations”. Besides, in the data set on JRCSF HIV-1 strain (20 mg/kg twice a day oral gavage, 15 days of treatment), the “viral load (viral RNA)” value is listed as “significantly reduce the viral load”. Further, in the data set on JRCSF HIV-1 strain (setting [4]), the “CD8+/CD4+ ratio” value is on record as “restores CD8+/CD4+ ratio back to that of non-infected mice” and the “depletion of CD4+ cells following infection” value was “prevents depletion of CD4+ cells”. In data set [1], the “engraftment values of CD45+ cells and ratio of CD8+/CD4+” value is given as “neither alters engraftment values of CD45+ cells nor the ratio of CD8+/CD4+”. Also, in data set [2], the “global effect on pre-mRNA splicing” value was “no global effect”. Further, the “inhibition of replication of viral strains harbouring resistance mutations (RT activity)” value in data set [3] is recorded as “very efficiently inhibits”.

For the origin of these results see US10806729B2, “Quinoline derivatives for use in the treatment or prevention of viral infection” (ABIVAX, priority 2015, dated 2020).
